Results taken from ChEMBL document CHEMBL1151768, “Resin glycoside constituents of Ipomoea pes-caprae (beach morning glory)” (J Nat Prod, 2008).
Activity calls are given as the source filed them.

How the values were obtained:
[1] = tested on: P388; assay: Cytotoxicity against mouse P388 cells by MTT assay; type: functional, cell-based
[2] = tested on: Escherichia coli; assay: Antimicrobial activity against Escherichia coli by agar dilution method; type: functional, organism-based
[3] = tested on: Candida albicans; assay: Antimicrobial activity against Candida albicans by agar dilution method; type: functional, organism-based
[4] = tested on: HL-60; assay: Cytotoxicity against human HL60 cells by MTT assay; type: functional, cell-based
[5] = tested on: Bel-7402; assay: Cytotoxicity against human BEL-7402 cells by SRB method; type: functional, cell-based
[6] = tested on: Bacillus subtilis; assay: Antimicrobial activity against Bacillus subtilis by agar dilution method; type: functional, organism-based
[7] = tested on: Staphylococcus aureus; assay: Antimicrobial activity against Staphylococcus aureus by agar dilution method; type: functional, organism-based
[8] = tested on: A549; assay: Cytotoxicity against human A549 cells by SRB method; type: functional, cell-based
[9] = tested on: Klebsiella aerogenes; assay: Antimicrobial activity against Enterobacter aerogenes by agar dilution method; type: functional, organism-based
[10] = target: Mu-type opioid receptor (Rattus norvegicus) (UniProt P33535); assay: Displacement of [3H]DAMGO from rat mu opioid receptor expressed in GH3 cells; type: cell-based

Measured: Activity

Mu-type opioid receptor (Rattus norvegicus), sequence (P33535 whole entry): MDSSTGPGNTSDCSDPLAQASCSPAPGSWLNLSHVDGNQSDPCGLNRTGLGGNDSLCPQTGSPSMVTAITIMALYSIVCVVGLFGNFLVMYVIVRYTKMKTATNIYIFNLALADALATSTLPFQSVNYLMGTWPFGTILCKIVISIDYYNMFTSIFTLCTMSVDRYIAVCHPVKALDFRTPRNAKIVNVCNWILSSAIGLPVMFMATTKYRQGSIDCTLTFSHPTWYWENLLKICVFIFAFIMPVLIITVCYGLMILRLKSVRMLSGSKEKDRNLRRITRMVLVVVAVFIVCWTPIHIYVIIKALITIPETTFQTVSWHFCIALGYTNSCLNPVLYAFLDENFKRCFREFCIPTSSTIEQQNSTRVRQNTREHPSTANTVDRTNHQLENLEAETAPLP

CCCCCCCCCC(=O)O[C@H]1[C@H](O[C@@H]2[C@@H](O)[C@H]3OC(=O)CCCCCCCCCC[C@H](CCCCC)O[C@@H]4O[C@H](C)[C@H](O)[C@H](O)[C@H]4O[C@@H]3O[C@H]2C)O[C@@H](C)[C@H](O[C@@H]2O[C@@H](C)[C@H](OC(=O)C(C)C)[C@@H](OC(=O)/C=C/c3ccccc3)[C@H]2O)[C@H]1O[C@@H]1O[C@@H](C)[C@H](O)[C@@H](O)[C@H]1O
inactive: all assays above
